According to patent US11331364B2, “Use for JNK inhibitor molecules for treatment of various diseases” (Xigen Inflammation Ltd., priority 2014, dated 2022):
“Also recorded” adds a separate entry of the source. Square brackets hold non-standard residues; d marks the D form. Peptide text beside a SMILES is read from it.

How the values were obtained:
[1] = tested on: THP1 differentiated macrophages; test: LPS-induced cytokine release in PMA differentiated THP1 macrophages (ELISA); assay type: cell-based, human
Protocol: In the following the procedure will be set forth describing how the released amount of several human cytokines after ligand induced secretion from human cells (Blood, WBC, PBMC, purified primary lymphocytes, cell lines, . . . ) was measured.
The technique used is a Sandwich ELISA, which allows measuring the amount of antigen between two layers of antibodies (i.e. capture and detection antibody). The antigen to be measured must contain at least two antigenic sites capable of binding to antibody, since at least two antibodies act in the sandwich. Either monoclonal or polyclonal antibodies can be used as the capture and detection antibodies in Sandwich ELISA systems. Monoclonal antibodies recognize a single epitope that allows fine detection and quantification of small differences in antigen. A polyclonal is often used as the capture antibody to pull down as much of the antigen as possible.
The method may be used to determine the effect of the JNK inhibitors of the present invention in vitro/cell culture. At non toxic doses, compound efficacy is indicated by the decrease of the cytokine levels (the variation of optical density (absorbance at 450 nm)) as compared to non-treated samples and is monitored by ELISA. Results are express in ng/ml.
In the following the procedure will be set forth describing how cytokine production from human PMA differentiated THP1 cells challenged by LPS for 6 h was induced in order to test the ability of JNK inhibitors of the present invention, in particular of a JNK inhibitor with SEQ ID NO: 172, to reduce stimulation-induced cytokine release. THP1 cells were stimulated ex-vivo by different ligands for the readout of cytokine release. At non toxic doses, JNK inhibitor efficacy is indicated by the decrease of the cytokine levels as compared to non-treated samples and is monitored by ELISA. The toxicity of the compound are evaluated by the reduction of a tretazolium salt (MTS) to formazan, giving a purple colour.
The cells were counted. […]

[2] = tested on: human whole blood; test: PHA-L-induced cytokine release in human whole blood, 3 days; assay type: cell-based; conditions: 1, 3, 10 μM, PHA-L 5 μg/mL
Protocol: FIG. 22 JNK inhibition and TNF-α release in human whole blood. The JNK inhibitor with SEQ ID NO: 172 was added at three different concentrations, namely 1, 3 and 10 μM 1 h before whole blood stimulation with PHA-L (5 μg/mL) for 3 days.
FIG. 23 JNK inhibition and IL-2 release in human whole blood. The JNK inhibitor with SEQ ID NO: 172 was added at three different concentrations, namely 1, 3 and 10 μM 1 h before whole blood stimulation with PHA-L (5 μg/mL) for 3 days.
Whole blood from human healthy volunteers was collected using a venipuncture connected to a pre-labeled vacuum tube containing sodium citrate. Tubes are gently mixed by inversion 7-8 times; and are then kept at RT until stimulation. 350 μl of RPMI+P/S were added into 1.2 ml-96-well plate. 10 times concentrated of SEQ ID NO: 172 was prepared in RPMI+P/S (50 μl per well). 50 μl was added into 1.2 ml-96 well plates. 50 μl of whole blood was then added in each well where either medium alone or JNK inhibitor has been previously added. Whole blood was incubated at 37° C., 5% CO2 for 60 min. 50 μl/well of ligands diluted in RPMI+P/S was prepared, corresponding to the final dilution 10 times concentrated. After 60 min of incubation, ligand was added; wells were then mixed by pipetting up and down the blood. […] Cytokine were then measured using standard Elisa kits. Results are expressed as pg/ml of supernatant of the measured cytokine.

CC(C)C[C@H](NC(=O)[C@H](CC(N)=O)NC(=O)[C@H](CC(C)C)NC(=O)[C@@H](NC(=O)[C@@H](C)NC(=O)[C@@H]1CCCN1C(=O)[C@H](CCCNC(=N)N)NC(=O)[C@@H](CCCCN)NC(=O)[C@@H]1CCCN1C(=O)[C@H](CCCNC(=N)N)NC(=O)[C@@H](CCCNC(=N)N)NC(=O)[C@H](CCCNC(=N)N)NC(=O)[C@H](CCCNC(=N)N)NC(=O)[C@H](CCC(N)=O)NC(=O)[C@@H](CCCNC(=N)N)NC(=O)[C@H](CCCNC(=N)N)NC(=O)[C@H](CCCCN)NC(=O)[C@H](CCCCN)NC(=O)[C@H](N)CCCNC(=N)N)[C@@H](C)O)C(=O)N[C@H](Cc1ccccc1)C(N)=O [SEQ ID NO: 172, rKKRrQRRrRPkRPaTLNLf] (H-[dR]KKR[dR]QRR[dR]RP[dK]RP[dA]TLNL[dF]-NH2; N-terminus assumed)
LPS-induced IL6 release ([1]; LPS added for 6 h): higher potency than D-TAT-IB1 (SEQ ID NO: 197), dTAT (SEQ ID NO: 45) and SP 600125; also recorded: higher potency than D-TAT-IB1 (SEQ ID NO: 197) and L-TAT-IB1 (SEQ ID NO: 196) | LPS-induced TNFα release ([1]; PMA/THP1 differentiated macrophages, LPS): higher potency than D-TAT-IB1 (SEQ ID NO: 197), dTAT (SEQ ID NO: 45) and SP 600125; also recorded: higher potency than D-TAT-IB1 (SEQ ID NO: 197) and L-TAT-IB1 (SEQ ID NO: 196) | LPS-induced cytokine and chemokine release ([1]; THP1-PMA-differentiated macrophages, TNF, IL 6, MCP1, 6 h LPS): blocks LPS-induced cytokine and chemokine release | PHA-L-induced IL-2 release [2]: did reduce the PHA-L-induced IL-2 release in a dose-dependent manner | PHA-L-induced TNF-α release [2]: did reduce the PHA-L-induced TNF-α release in a dose-dependent manner
